Columns and labels:
[1] = target: T1, Bcl-2-like protein 11/Bcl-2-related protein A1 (Homo sapiens, UniProt O43521+Q16548); assay: Inhibition of Bfl-1/Bim (unknown origin) by fluorescence polarization assay; format: protein-complex assay
[2] = target: T1, Bcl-2-like protein 11/Bcl-2-related protein A1; assay: Inhibition of Bfl-1/Bim (unknown origin) assessed as inhibition constant by fluorescence polarization assay; format: protein-complex assay
[3] = target: T1, Bcl-2-like protein 11/Bcl-2-related protein A1; assay: Inhibition of Bfl-1/Bim (unknown origin) incubated for 30 mins by TR-FRET assay; format: protein-complex assay
[4] = Lipophilicity, logP of compound; format: physicochemical; conditions: octanol/water
[5] = target: T2, Apoptosis regulator Bcl-2 (Homo sapiens, UniProt P10415); assay: Inhibition of Bcl-2 (unknown origin) by fluorescence polarization assay
Bcl-2-related protein A1 [6] = target: T3, Bcl-2-related protein A1 (Homo sapiens, UniProt Q16548); assay: Inhibition of Bfl-1 (unknown origin) by fluorescence polarization assay
T3 sequence (Q16548 whole entry): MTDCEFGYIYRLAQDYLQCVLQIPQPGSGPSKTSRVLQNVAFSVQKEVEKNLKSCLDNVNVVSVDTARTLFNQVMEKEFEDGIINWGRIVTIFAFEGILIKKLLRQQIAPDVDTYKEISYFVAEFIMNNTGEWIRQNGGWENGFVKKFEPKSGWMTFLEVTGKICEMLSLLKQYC

Bcl-2-related protein A1 [7] = target: T3, Bcl-2-related protein A1; assay: Displacement of fluorescent-labeled BID-BH3 peptide from His-tagged BFL-1 (unknown origin)
[8] = target: T2, Apoptosis regulator Bcl-2; assay: Displacement of fluorescein tagged BID BH3 peptide from GST-tagged recombinant Bcl-2 (unknown origin) by fluorescence polarization-based competitive binding assay
[9] = target: Induced myeloid leukemia cell differentiation protein Mcl-1 (Homo sapiens) (UniProt Q07820); assay: Displacement of fluorescein tagged BID BH3 peptide from GST-tagged recombinant Mcl-1 (unknown origin) by fluorescence polarization-based competitive binding assay
Induced myeloid leukemia cell differentiation protein Mcl-1 (Homo sapiens), sequence (Q07820 whole entry): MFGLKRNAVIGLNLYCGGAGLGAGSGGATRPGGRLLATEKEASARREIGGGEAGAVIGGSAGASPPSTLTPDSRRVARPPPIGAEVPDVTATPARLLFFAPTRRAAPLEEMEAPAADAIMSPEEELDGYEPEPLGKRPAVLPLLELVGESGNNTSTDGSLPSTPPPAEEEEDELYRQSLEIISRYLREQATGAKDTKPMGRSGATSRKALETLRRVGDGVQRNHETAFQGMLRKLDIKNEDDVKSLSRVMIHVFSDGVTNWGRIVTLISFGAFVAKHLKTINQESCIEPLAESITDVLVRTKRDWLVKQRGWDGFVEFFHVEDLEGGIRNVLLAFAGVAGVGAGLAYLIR

T1 sequence (O43521 whole entry, one chain of several): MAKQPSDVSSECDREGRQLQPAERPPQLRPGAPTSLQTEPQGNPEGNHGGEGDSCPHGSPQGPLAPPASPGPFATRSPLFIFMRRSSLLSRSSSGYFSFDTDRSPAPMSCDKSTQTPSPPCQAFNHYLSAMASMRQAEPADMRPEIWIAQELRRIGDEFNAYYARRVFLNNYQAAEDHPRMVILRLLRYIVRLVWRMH
T2 sequence (P10415 whole entry): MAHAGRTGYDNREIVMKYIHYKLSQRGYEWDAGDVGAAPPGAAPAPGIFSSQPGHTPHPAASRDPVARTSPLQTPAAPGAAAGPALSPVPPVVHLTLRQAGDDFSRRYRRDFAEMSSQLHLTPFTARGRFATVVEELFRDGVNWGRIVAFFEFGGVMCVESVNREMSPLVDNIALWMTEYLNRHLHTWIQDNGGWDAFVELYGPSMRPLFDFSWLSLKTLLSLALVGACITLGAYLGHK

## CSc1ccc(C(Nc2ccccn2)c2c(C)[nH]c3ccccc23)cc1 (stereo not given)
[1]
  IC50: 6300 nM
[2]
  Ki: 2900 nM
[3]
  IC50: 2500 nM
[4]
  logP: 4

## CC1=C(C2=C(C)C(=O)c3c(cc(O)c(O)c3Cc3ccccc3)C2=O)C(=O)c2cc(O)c(O)c(Cc3ccccc3)c2C1=O
[5]
  IC50: 1300 nM

## CCOc1ccc(N2C(=O)/C(=C/C=C/c3ccccc3)C(=O)NC2=S)cc1
Bcl-2-related protein A1 [6]
  IC50: 1300 nM

## CC(=O)N[C@@H](Cc1c[nH]c2ccccc12)C(=O)NCCSSCCN(C)C
Bcl-2-related protein A1 [7]
  EC50: 23 nM

## CC(C)=CCC[C@]1(C)C=Cc2c(O)c3c(c(CC=C(C)C)c2O1)O[C@]12C(=C[C@@H]4C[C@H]1C(C)(C)O[C@@]2(C/C=C(/C)C(=O)O)C4=O)C3=O [GAMBOGIC ACID]
[8]
  IC5: 1.21 µM
[9]
  IC5: 0.79 µM
[5]
  IC50: 122 nM

## COc1ccc(C(c2c(-c3ccccc3)n(O)c3ccccc23)N2CCN(C)CC2)cc1 (stereo not given)
[1]
  IC50: 800 nM
[2]
  Ki: 400 nM
[3]
  IC50: 1400 nM
[4]
  logP: 4

## O=C1NC(=S)N(c2cccc(Br)c2)C(=O)/C1=C/C=C/c1ccccc1
Bcl-2-related protein A1 [6]
  IC50: 1600 nM

Reference: ChEMBL document CHEMBL5241079, “Inhibitors of BCL2A1/Bfl-1 protein: Potential stock in cancer therapy” (Eur J Med Chem, 2021)
